Our source for the T/C values is PubChem BioAssay AID208 (DTP/NCI, 2004).

Inconclusive results are not listed.

The assay relates to HT29 intrarenal xenograft, nude mice, tumor weight change. Briefly: NCI In Vivo Anticancer Drug Screen. Data for tumor model HT29;CX-1 Human Adenocarcinoma (MER+) (intrarenal inoculation) in NU/NU BALB/C (nude) mice. Particulars: endpoint: mean tumor weight change, higher = larger tumour. On the procedure:
The antitumor activity of compounds was measured in mice bearing transplantable tumors. Survival or tumor size were measured and the results are expressed as the measurement made in the treated group (T) divided by the measurement made in the vehicle treated control group (C). The tumor model used in this assay is HT29;CX-1 Human Adenocarcinoma (MER+) (intrarenal inoculation) in NU/NU BALB/C (nude) mice

For `C1OC1CO[C@@H]1CO[C@H]2[C@@H]1OC[C@H]2OCC1CO1` (some centres undefined), the T/C reads like this: (dose: 50.0 mg/kg/injection, schedule: Q01DX010 (sc), vehicle: saline with Tween-80) 121 % of control; (dose: 100.0 mg/kg/injection, schedule: Q01DX010 (sc), vehicle: saline with Tween-80) 64 % of control; (dose: 200.0 mg/kg/injection, schedule: Q01DX010 (sc), vehicle: saline with Tween-80) 103 % of control.

In the case of `O=[N+]([O-])c1ccc(N2CCOCC2)c2c1no[n+]2[O-]`, the T/C is 88 % of control (dose: 75.0 mg/kg/injection, schedule: Q04DX004 (sc), vehicle: saline with Tween-80); 116 % of control (dose: 150.0 mg/kg/injection, schedule: Q04DX004 (sc), vehicle: saline with Tween-80); 156 % of control (dose: 300.0 mg/kg/injection, schedule: Q04DX004 (sc), vehicle: saline with Tween-80); 83 % of control (dose: 600.0 mg/kg/injection, schedule: Q04DX004 (sc), vehicle: saline with Tween-80).

For `NC(=O)c1ccc[n+](Cc2c(Cl)cccc2Cl)c1`, the T/C by setting is: (dose: 25.0 mg/kg/injection, schedule: Q04DX004 (sc), vehicle: saline) 93 % of control; (dose: 50.0 mg/kg/injection, schedule: Q04DX004 (sc), vehicle: saline) 91 % of control; (dose: 200.0 mg/kg/injection, schedule: Q04DX004 (sc), vehicle: saline) 205 % of control.

As for `COc1ccc2c(NCCCCCCCCNc3c4ccccc4nc4cc(OC)ccc34)c3ccccc3nc2c1`, the T/C was 65 % of control (dose: 31.25 mg/kg/injection, schedule: Q04DX004 (sc), vehicle: suspension in saline); 72 % of control (dose: 62.5 mg/kg/injection, schedule: Q04DX004 (sc), vehicle: suspension in saline); 47 % of control (dose: 125.0 mg/kg/injection, schedule: Q04DX004 (sc), vehicle: suspension in saline); 73 % of control (dose: 250.0 mg/kg/injection, schedule: Q04DX004 (sc), vehicle: suspension in saline).
